Where two headings read alike, the source gives them in different places. Each block holds one compound with its values, some of them ahead of it.
Legend:
PSMA = PSMA (Homo sapiens, UniProt Q04609); assay: PSMA competitive binding, PC-3 PIP cells with [125I]MIP-1095; set-up: expressed in transfected cells; host or cells: PC-3 PIP cells
Experimental: In vitro binding assays were carried out to determine the PSMA binding affinity of various compounds. By incubating PSMA positive cells either with: 1). LNCaP with 0.2 nM [^68Ga]PSMA-11 or [^125I]MIP-1095, as the ligand, in the presence of 10 different concentrations of competing ligands; non-specific binding was defined with 20 μM 2-PMPA (2-(phosphonomethyl)pentanedioic acid); or 2). PC-3 PIP cells with [^125I]MIP-1095 (0.18 nM diluted in PBS) in presence of different concentration of test compounds ([…] diluted in PBS containing 0.1% bovine serum albumin). Nonspecific binding (NSB) was defined with 2 μM the known PSMA inhibitor, PSMA-617. After incubation at 37° C. for 1 h, the bound and free fractions were separated by vacuum filtration through GF/B filters using a Brandel M-24R cell harvester. The filters were washed twice with cold Tris-HCl buffer (50 mM, pH=7.4), and the radioactivity on the filters was counted in a gamma counter (Wizard^2, Perkin-Elmer) with 50% efficiency. The nonspecific bound was less than 10% of the total bound. Data were analyzed using GraphPad Prism 6.0 with a nonlinear regression algorithm to obtain the half maximal inhibitory concentration (IC50).
The binding affinities to PSMA of the test compounds were measured by a competitive binding assay using either LNCap or PC-3 PIP cells suspension and the known radiotracers known to have high affinity and specificity to PSMA, [^68Ga]PSMA-11 or [^125I]MIP-1095. The IC50 values of four iodinated compounds, three DOTA, DOTAG and DOTA(GA)2 related compounds and two known PSMA inhibitors are shown in Table 1. Complexes of compound 4 and natural Ga and natural Lu were also tested. […] After labeling with radioisotope they are expected to bind to the tumor tissues over expressing PSMA binding sites.

PIP tumor and PC3 tumor = assay: Biodistribution of 125I labeled compounds 17, 18, 26 and 27 in tumor bearing nude mice; type: in vivo; details: for Biodistribution: Bladder* / Biodistribution: Stomach* / Biodistribution: large intestine* / Biodistribution: small intestine*: organ with content; for PIP/blood / PIP/muscle: ratio
Experimental: Radioiodination and Purification: 100 μg of either precursor 13, 14, 22 or 23 were dissolved in 100 μL EtOH; 22 μL Na^125I (1033-1118 μCi in 0.1 N NaOH), 100 μL 1N HCl and 100 μL 3% H2O2 were added. After 15 minutes at room temperature, the reaction was stopped by adding 150 μL sat. NaHSO3. The reaction mixture was slowly added to 1.5 mL sat. NaHCO3. Vial was rinsed with 1000 μL EtOH and mixture was diluted further to 10 mL mL water. The active sample was transferred onto an activated C4 mini column. The mixture was pushed through, washed twice with 3 mL water and the product was eluted with 1 mL ACN. Added 100 μL DMSO. The mixture was concentrated to ˜100 μL and purified by HPLC (Agilent Eclipse XCD C18 150×4.6 mm, 5 μm; 4 mL/min, gradient (ACN and water; 0-1 min (20/80), 1-16 min (20/80-100/0), 16-16.5 min (100/0-20/80), 16.5-20 min 20/80) (collected every minute). The sample was blown to dryness under argon, re-dissolved in 500 μL CH2Cl2 and 1 mL TFA was added at room temperature. After 1 hr the solution was blown to dryness and activity taken into 1 mL EtOH (10 μL saturated ascorbic acid/EtOH was added). Isolated activities for [^125I]17, 18, 26, and 27 were 197, 189, 600 and 197 μCi respectively. A representative picture of HPLC profiles (FIG. 3) for radiolabeled protected (intermediate), cold standard and radioactive trace of final compound is shown for [^125I]26.
For iv injection 150 μL of labeled solution was diluted with saline to 3.75 mL. Mice were injected with 2˜3 μCi of [^125I]18, 27, 26, and 18 in 0.15 mL saline. Injected radioactivity was 2 to 3 μCi.
Biodistribution study of [^125I]18, 27, 26, and 18 in tumor bearing nude mice were evaluated for their ability to localization of PSMA positive tumor (Tables 5, 6, 7 and 8). It was observed that [^125I]26 and [^125I] […] These new agents are valuable for radionuclide therapy, when labeled with beta or alpha-emitting isotopes; but these agents will also be useful as diagnostic agents when labeled with gamma-emitting isotopes.

[1] = n = 3 (a: n = 2), read-out: IC50 *(PC-3 PIP cells and [125I]MIP-1095)

Sequence of PSMA (Q04609 whole entry, species assumed): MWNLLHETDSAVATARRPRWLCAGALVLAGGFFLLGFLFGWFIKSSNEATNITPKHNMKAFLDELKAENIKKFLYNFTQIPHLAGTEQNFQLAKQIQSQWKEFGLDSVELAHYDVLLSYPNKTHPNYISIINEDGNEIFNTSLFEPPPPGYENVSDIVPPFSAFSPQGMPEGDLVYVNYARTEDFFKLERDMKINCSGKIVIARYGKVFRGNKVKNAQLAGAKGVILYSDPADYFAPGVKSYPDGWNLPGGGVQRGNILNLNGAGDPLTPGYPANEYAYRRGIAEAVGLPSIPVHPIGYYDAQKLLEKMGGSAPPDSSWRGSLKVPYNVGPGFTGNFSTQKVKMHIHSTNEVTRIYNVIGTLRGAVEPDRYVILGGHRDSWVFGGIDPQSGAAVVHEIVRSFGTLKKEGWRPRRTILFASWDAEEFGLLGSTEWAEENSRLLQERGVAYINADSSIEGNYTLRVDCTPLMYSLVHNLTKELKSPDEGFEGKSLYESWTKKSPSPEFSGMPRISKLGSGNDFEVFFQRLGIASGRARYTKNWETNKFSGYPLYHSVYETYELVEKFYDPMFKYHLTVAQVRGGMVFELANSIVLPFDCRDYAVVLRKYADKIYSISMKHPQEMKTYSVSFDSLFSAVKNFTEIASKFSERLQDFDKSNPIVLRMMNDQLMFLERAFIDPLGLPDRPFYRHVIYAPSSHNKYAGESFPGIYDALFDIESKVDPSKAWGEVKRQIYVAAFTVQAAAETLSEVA

IC50 (PSMA; [1]): 2.63 ± 0.13 nM
SMILES: O=C(O)CC[C@H](NC(=O)N[C@@H](CCCCNC(=O)[C@H](Cc1ccccc1)NC(=O)[C@H](CCC(=O)O)NC(=O)c1ccc(I)cc1)C(=O)O)C(=O)O [Compound 17, (((S)-1-Carboxy-5-((S)-2-((S)-4-carboxy-2-(4-iodobenzamido)butanamido)-3-phenylpropanamido)pentyl)carbamoyl)-L-glutamic acid]

IC50 (PSMA; [1]): 1.99 ± 0.06 nM
SMILES: O=C(O)CC[C@H](NC(=O)N[C@@H](CCCCNC(=O)[C@H](Cc1ccccc1)NC(=O)[C@H](CCC(=O)O)NC(=O)[C@H](CCC(=O)O)NC(=O)c1ccc(I)cc1)C(=O)O)C(=O)O [Compound 18, (((S)-1-Carboxy-5-((S)-2-((S)-4-carboxy-2-((S)-4-carboxy-2-(4-iodobenzamido)butanamido)butanamido)-3-phenylpropanamido)pentyl)carbamoyl)-L-glutamic acid]

IC50 (PSMA; [1]): 4.74 ± 0.37 nM
SMILES: O=C(O)CC[C@H](NC(=O)N[C@@H](CCCCNC(=O)[C@H](Cc1ccccc1)NC(=O)COc1ccc(C[C@H](NC(=O)[C@H](CCC(=O)O)NC(=O)c2ccc(I)cc2)C(=O)O)cc1)C(=O)O)C(=O)O [Compound 26, (((S)-1-Carboxy-5-((S)-2-(2-(4-((S)-2-carboxy-2-((S)-4-carboxy-2-(4-iodobenzamido)butanamido)ethyl)phenoxy)acetamido)-3-phenylpropanamido)pentyl)carbamoyl)-L-glutamic acid]

IC50 (PSMA; [1]): 22.6 ± 1.59 nM
SMILES: O=C(O)CCC(C(=O)O)N1CCN(CC(=O)O)CCN(C(CCC(=O)N[C@@H](CCC(=O)O)C(=O)N[C@@H](CCC(=O)O)C(=O)N[C@@H](Cc2ccc(OCC(=O)N[C@@H](Cc3ccccc3)C(=O)NCCCC[C@H](NC(=O)N[C@@H](CCC(=O)O)C(=O)O)C(=O)O)cc2)C(=O)O)C(=O)O)CCN(CC(=O)O)CC1 (stereo partly drawn) [Compound 29, (((1S)-5-((2S)-2-(2-(4-((2S)-2-((2S)-2-((2S)-2-(4-(4,10-Bis(carboxymethyl)-7-(1,3-dicarboxypropyl)-1,4,7,10-tetraazacyclododecan-1-yl)-4-carboxybutanamido)-4-carboxybutanamido)-4-carboxybutanamido)-2-carboxyethyl)phenoxy)acetamido)-3-phenylpropanamido)-1-carboxypentyl)carbamoyl)-L-glutamic acid]

IC50 (PSMA; [1]): 28.1 ± 0.85 nM
SMILES: O=C(O)CC[C@H](NC(=O)N[C@@H](CCCCNC(=O)[C@H](Cc1ccccc1)NC(=O)COc1ccc(C(=O)NCCCC[C@H](NC(=O)CNC(=O)CCC(C(=O)O)N2CCN(CC(=O)O)CCN(CC(=O)O)CCN(CC(=O)O)CC2)C(=O)O)cc1)C(=O)O)C(=O)O (stereo partly drawn) [Compound 38, (((1S)-1-Carboxy-5-((2S)-2-(2-(4-(((5S)-5-carboxy-5-(2-(4-carboxy-4-(4,7,10-tris(carboxymethyl)-1,4,7,10-tetraazacyclododecan-1-yl)butanamido)acetamido)pentyl)carbamoyl)phenoxy)acetamido)-3-phenylpropanamido)pentyl)carbamoyl)-L-glutamic acid]

IC50 (PSMA; [1]): 47.8 ± 3.16 nM
SMILES: O=C(O)CCc1ccc(O)c(CN(CCN(CC(=O)O)Cc2cc(CCC(=O)NCCCCCC(=O)NCCCC[C@H](NC(=O)N[C@@H](CCC(=O)O)C(=O)O)C(=O)O)ccc2O)CC(=O)O)c1 [PSMA-11, Glu-NH—CO—NH-Lys-(Ahx)-(HBED-CC), reference compound]

Biodistribution: Blood (PIP tumor and PC3 tumor; 1 h): 0.47 ± 0.07 % ID/g
Biodistribution: Bone (PIP tumor and PC3 tumor; 1 h): 0.94 ± 0.21 % ID/g
Biodistribution: Heart (PIP tumor and PC3 tumor; 1 h): 2.60 ± 0.10 % ID/g
Biodistribution: Kidney (PIP tumor and PC3 tumor; 1 h): 127.77 ± 8.24 % ID/g
Biodistribution: Liver (PIP tumor and PC3 tumor; 1 h): 1.72 ± 0.11 % ID/g
Biodistribution: Lung (PIP tumor and PC3 tumor; 1 h): 3.53 ± 1.35 % ID/g
Biodistribution: Muscle (PIP tumor and PC3 tumor; 1 h): 1.05 ± 0.07 % ID/g
Biodistribution: PC3 tumor (PIP tumor and PC3 tumor; 1 h): 1.99 ± 0.17 % ID/g
Biodistribution: PIP tumor (PIP tumor and PC3 tumor; 1 h): 17.19 ± 3.74 % ID/g
Biodistribution: Pancreas (PIP tumor and PC3 tumor; 1 h): 1.32 ± 0.46 % ID/g
Biodistribution: Skin (PIP tumor and PC3 tumor; 1 h): 2.68 ± 0.47 % ID/g
Biodistribution: Spleen (PIP tumor and PC3 tumor; 1 h): 12.25 ± 3.36 % ID/g
Biodistribution: gland (PIP tumor and PC3 tumor; 1 h): 3.59 ± 1.03 % ID/g
Biodistribution: thyroid (PIP tumor and PC3 tumor; 1 h): 39.72 ± 12.95 % ID/g
Biodistribution: Bladder* (PIP tumor and PC3 tumor; 1 h): 53.39 ± 19.82 % ID/g
Biodistribution: Stomach* (PIP tumor and PC3 tumor; 1 h): 0.55 ± 0.21 % ID/g
Biodistribution: large intestine* (PIP tumor and PC3 tumor; 1 h): 1.13 ± 0.52 % ID/g
Biodistribution: small intestine* (PIP tumor and PC3 tumor; 1 h): 1.52 ± 0.45 % ID/g
PIP/blood (PIP tumor and PC3 tumor; 1 h): 36.90 ± 8.14
PIP/muscle (PIP tumor and PC3 tumor; 1 h): 16.57 ± 4.28
Biodistribution: Blood (PIP tumor and PC3 tumor; 4 h): 0.32 ± 0.12 % ID/g
Biodistribution: Bone (PIP tumor and PC3 tumor; 4 h): 0.56 ± 0.05 % ID/g
Biodistribution: Heart (PIP tumor and PC3 tumor; 4 h): 1.36 ± 0.33 % ID/g
Biodistribution: Kidney (PIP tumor and PC3 tumor; 4 h): 138.08 ± 31.03 % ID/g
Biodistribution: Liver (PIP tumor and PC3 tumor; 4 h): 1.28 ± 0.63 % ID/g
Biodistribution: Lung (PIP tumor and PC3 tumor; 4 h): 1.86 ± 0.24 % ID/g
Biodistribution: Muscle (PIP tumor and PC3 tumor; 4 h): 0.69 ± 0.21 % ID/g
Biodistribution: PC3 tumor (PIP tumor and PC3 tumor; 4 h): 1.67 ± 0.44 % ID/g
Biodistribution: PIP tumor (PIP tumor and PC3 tumor; 4 h): 17.36 ± 2.57 % ID/g
Biodistribution: Pancreas (PIP tumor and PC3 tumor; 4 h): 1.07 ± 0.31 % ID/g
Biodistribution: Skin (PIP tumor and PC3 tumor; 4 h): 2.03 ± 0.39 % ID/g
Biodistribution: Spleen (PIP tumor and PC3 tumor; 4 h): 13.16 ± 4.01 % ID/g
Biodistribution: gland (PIP tumor and PC3 tumor; 4 h): 3.57 ± 0.54 % ID/g
Biodistribution: thyroid (PIP tumor and PC3 tumor; 4 h): 60.34 ± 22.28 % ID/g
Biodistribution: Bladder* (PIP tumor and PC3 tumor; 4 h): 38.17 ± 21.99 % ID/g
Biodistribution: Stomach* (PIP tumor and PC3 tumor; 4 h): 0.96 ± 0.55 % ID/g
Biodistribution: large intestine* (PIP tumor and PC3 tumor; 4 h): 1.35 ± 0.48 % ID/g
Biodistribution: small intestine* (PIP tumor and PC3 tumor; 4 h): 0.83 ± 0.34 % ID/g
PIP/blood (PIP tumor and PC3 tumor; 4 h): 58.93 ± 20.54
PIP/muscle (PIP tumor and PC3 tumor; 4 h): 27.34 ± 10.28
Liver uptakes (PIP tumor and PC3 tumor; mouse, in vivo): low
Uptakes in PIP tumors, kidneys and spleen compared to [125I]17 and [125I]18 (PIP tumor and PC3 tumor; mouse, in vivo): higher uptakes
SMILES: O=C(O)CC[C@H](NC(=O)N[C@@H](CCCCNC(=O)[C@H](Cc1ccccc1)NC(=O)COc1ccc(C[C@H](NC(=O)[C@H](CCC(=O)O)NC(=O)[C@H](CCC(=O)O)NC(=O)c2ccc([125I])cc2)C(=O)O)cc1)C(=O)O)C(=O)O [[^125I]27]

IC50 (PSMA; [1]): 22.2 ± 2.1 nM
SMILES: O=C([O-])CN1CCN(C(CCC(=O)NCC(=O)N[C@@H](Cc2ccc(OCC(=O)N[C@@H](Cc3ccccc3)C(=O)NCCCC[C@H](NC(=O)N[C@@H](CCC(=O)O)C(=O)O)C(=O)O)cc2)C(=O)O)C(=O)[O-])CCN(CC(=O)[O-])CCN(C(CCC(=O)O)C(=O)O)CC1.[Ga+3] (stereo partly drawn) [[^natGa]4, (4S,11S,15S)-4-benzyl-1-(4-((2S)-2-(2-(4-(4,10-bis(carboxymethyl)-7-(1,3-dicarboxypropyl)-1,4,7,10-tetraazacyclododecan-1-yl)-4-carboxylatebutanamido)acetamido)-2-carboxyethyl)phenoxy)-2,5,13-trioxo-3,6,12,14-tetraazaheptadecane-11,15,17-tricarboxylate gallium]

SMILES: O=C(O)CC[C@H](NC(=O)N[C@@H](CCCCNC(=O)[C@H](Cc1ccccc1)NC(=O)COc1ccc(C[C@H](NC(=O)CNC(=O)CCC2C(=O)[O][Lu-4]345678[O]C(=O)CN9CC[N+]23CC[N+]4(CC[N+]5(CC9)C(CCC(=O)[OH+]6)C(=O)[O]7)CC(=O)[O]8)C(=O)O)cc1)C(=O)O)C(=O)O (some centres unmarked) [[^natLu]4]
IC50 (PSMA): 18.7 ± 0.3 nM
